Reference: US20230381069A1, “TOPICAL COMPOSITIONS AND METHODS OF USING THEREOF” (OHIO STATE INNOVATION FOUNDATION, priority 2016, published 2023)

Experiment: Photolysis of thin films in petroleum jelly on quartz plates under a UV photolysis lamp
Format: physicochemical
Experimental: A UV photolysis lamp having a light flux of 320 mW equipped with a cutoff filter at 270-280 nm was used to evaluate the performance and stability of the sunscreen compositions prepared herein. With 3 min of exposure to the UV lamp (same position as sample, after the filter), a clear damage was observed on human skin. Typically, under hot sun, this sunburn process takes 30 min to an hour. Accordingly, the photolysis lamp used for analysis is considerably more intense than natural sunlight.
FIGS. 4A and 4B compare the stability of avobenzone dispersed in petroleum jelly with avobenzone encapsulated in encapsulated in zeolite nanoparticles (10% zeolite, 1% AB) dispersed in petroleum jelly.
FIG. 7 is a plot showing the long-term stability of avobenzone/nanozeolite formulations. The absorption spectra of a thin film of avobenzone encapsulated in zeolite nanoparticles (10% zeolite, 1% AB) dispersed in petroleum jelly on quartz plates was obtained following 0, 3, 5, and 12 hours of irradiation using a UV photolysis lamp.

SMILES: COc1ccc(C(=O)CC(=O)c2ccc(C(C)(C)C)cc2)cc1 [avobenzone]
- AB decomposition in the presence of 1% OMC (octinoxate) (petroleum jelly, photolysis for 4 hours, FIGS. 8A/8B): AB decomposition was observed after the first hour of photolysis
- degradation of avobenzone via UV spectroscopy (long-term stability) (thin film in petroleum jelly, 0, 3, 5 and 12 hours of irradiation, FIG. 7): complete degradation of the avobenzone was observed within four hours
